Legend:
[1] = test system: SHI-1, an AML cell line with the genetic aberrancy t(6;11); assay: Apoptosis assay (Annexin-V/propidium iodide) in t(6;11) SHI-1 cells; format: cell-based; details: for cytotoxic activity on t(6;11) AML cells (cell death): SHI-1, 24 h after treatment, compared with TDZ; for apoptotic and dead cells: relative to DMSO
Description: (§1) Apoptosis was evaluated by double staining with Annexin-V/propidium iodide (Roche Biochemicals, Indianapolis, IN) and analyzed using Cytometer F C500 (Beckman Coulter, Brea, CA). Increased apoptosis was calculated and expressed as the percentage of Annexin-V-positive and propidium iodide-positive cells compared to those exposed to DMSO.

SHI-1 cells = assay: Intracellular Ca2+ measurement (Fluo-4 AM) in SHI-1 cells; format: cell-based; details: for mechanism of Ca2+ influx: SHI-1, Ca2+-containing or Ca2+-free buffer
Description: (§2) Intracellular Ca^2+ levels were monitored by Fluo-4 AM fluorescence according to the manufacturer's instructions. Briefly, cells were washed in Hanks Balanced Salt Solutions, incubated with Fluo-4 AM 3 μM diluted in the working buffer (0.02% w/v Pluronic and 0.2 mM sulfinpyrazone, both sourced from Sigma-Aldrich-Merck, in 10 mM HEPES-buffered Hanks) for 30′ at RT. After incubation, cells were washed and resuspended in working buffer with CaCl2) 0.2 mg/I for 30′, to allow the de-esterification of Fluo-4 AM. Results were evaluated using the FC500 cytometer, and 2-photon microscope Thorlabs. In both experiments, the mean fluorescence intensity (MFI) was detected at basal condition, and up to 5 minutes after treatment.

NSG mice = assay: Stepping test (akinesia, neuroleptic effects); format: in vivo; details: for neuroleptic effects (akinesia, stepping test): i.p., 36.85 μmol/Kg (corresponding to 15 mg/kg of TDZ), 1 h after injection
Description: Twelve NSG mice between 6 and 8 weeks of age were randomized in 4 groups (DMSO, thioridazine (TDZ), compound according to Example 1 (TDZ2) and compound according to Example 2 (TDZ6)), and treated every 2 days with growing doses of drugs, administered ip. […] The successive growing doses were 10 mg/kg, 12 mg/kg and finally 15 mg/kg, and the corresponding molar dose of the analogues. The stepping test was performed as previously described (Blume S R, Cass D K, Tseng K Y. Stepping test in mice: A reliable approach in determining forelimb akinesia in MPTP-induced Parkinsonism. Exp Neurol. 2009; 219:208-11) 1 h after drug injection, documented to be the time with the maximum TDZ serum concentration (Nagel D, Spranger S, Vincendeau M, Grau M, Raffegerst S, Kloo B, et al. Pharmacologic Inhibition of MALT1 Protease by Phenothiazines as a Therapeutic Approach for the Treatment of Aggressive ABC-DLBCL. Cancer Cell. 2012; 22:825-37). Briefly, the stepping test was performed on an open table and each trial was recorded using a digital video camera. The animal was allowed to settle at one edge of the table, then the experimenter would lift up the hind legs by pulling up on the tail, leaving only the forepaws touching the table, for a total distance of 1 m. The number of steps from both forepaws and the time used were computed.

[2] = test system: other AML cell lines harboring other genetic mutations (HL60, NOMO1, SKNO-1); assay: Apoptosis assay in non-t(6;11) AML cell lines; format: cell-based; details: 24 and 48 h
Description: as §1

t(6;11) SHI-1 cells [3] = assay: Colonies forming assay in t(6;11) SHI-1 cells; format: cell-based; details: 24 h pre-treatment, viable cells seeded in drug-free condition
Description: (§3) After 24 h of treatment, a total of 5×10^2 ML2, SHI-1, HL60, SKNO-1 or NOMO-1 cells and 3×10^3 primary blasts from patients with t(6;11)—rearranged AML were seeded into 500 μl of MethoCult™ (H4230 and H4534 respectively, Stemcell Technologies, Meda M B, Italy), in 24-well plates and incubated at 37° C. Fourteen days after seeding, an adequate volume of a 1:6 solution of 3-[4,5-dimethylthiazol-2-yl]-2,5-diphenyltetrazolium bromide (MTT, Sigma-Aldrich-Merck) in Hanks' was added to semisolid medium. Images were acquired by optical microscope with camera, and colonies were counted using ImageJ software.

[4] = test system: non-t(6;11) HL60, NOMO-1, SKNO-1 cells; assay: Colonies forming assay in non-t(6;11) AML cell lines; format: cell-based; details: 24 h of treatment, other AML cell lines
Description: as §3

[5] = test system: primary cultures from patients with t(6;11) AML; assay: Apoptosis assay in primary t(6;11) AML cultures; format: cell-based; details: primary t(6;11) AML compared with non-t(6;11)-AML; 24 and 48 h
Description: as §1

[6] = test system: healthy bone marrow (HBM) cells; assay: Apoptosis assay in healthy bone marrow cells; format: cell-based; details: 24 and 48 h
Description: as §1

[7] = test system: t(6;11)-AML primary cells; assay: Colonies forming assay in t(6;11)-AML primary cells; format: cell-based
Description: as §3

SHI-1 xenografted mice = assay: Flank injection xenograft, SHI-1; format: in vivo, NSG mice; details: 8 mg/kg daily i.p., compared with control (p<0.01 and p<0.001)
Description: (§4) Animal experiments were approved by the animal ethics committee of University of Padova and by Italian Minister of Health n° 512/2019-PR, and were executed in accordance with national guidelines and regulations. For flank injection experiments, six NOD-SCID interleukin-2 receptor gamma null (NSG) mice between 6 and 8 weeks of age were injected subcutaneously with 2×10^6 SHI-1, HL60 or THP-1 cells per flank-injection. Each mouse received two flank-injections. When tumors reached an area of 25 mm^2, mice were randomized in 2 groups (control and TDZ-treated), and daily treated with intraperitoneally (ip) administered TDZ 8 mg/kg. Experimental endpoint is reached when tumors reached an area of 250 mm^2.
(§5) TDZ was also used for further tests and particularly to test if it had same effects on leukemia growth in vivo in NOD/scid IL-2Rgnull (NSG) mice flank-injected with the SHI-1-t(6;11) or non-t(6;11) AML cell lines HL60 and THP-1. Xenografted tumor was allowed to grow up to ˜[…] before starting daily intraperitoneal (i.p.) TDZ administration (at 8 mg/kg concentration, below the previously described tolerated dose (Nagel D, Spranger S, Vincendeau M, Grau M, Raffegerst S, Kloo B, et al. Pharmacologic Inhibition of MALT1 Protease by Phenothiazines as a Therapeutic Approach for the Treatment of Aggressive ABC-DLBCL. Cancer Cell. 2012; 22:825-37)).

[8] = test system: mice xenografted with HL60 or THP1; assay: Flank injection xenograft, HL60 or THP1; format: in vivo, NSG mice; details: 8 mg/kg daily i.p.
Description: as §4, §5

t(6;11) SHI-1 cells [9] = assay: Reactive oxygen species (CellROX) by flow cytometry; format: cell-based; details: 6, 16 and 24 h after treatment, compared with DMSO
Description: ROS production was monitored by flow cytometry using CellROX Deep Red Reagent (C10422, Invitrogen) following manufacturer's instructions. Briefly, CellROX Deep Red Reagent was added at a final concentration of 5 μM to the cells and incubated for 30 minutes at 37° C. Cells were washed three times with PBS, and analyzed by flow cytometry using Cytoflex (Beckman Coulter).

t(6;11) SHI-1 cells [10] = assay: Mitochondrial membrane potential (TMRE); format: cell-based; details: 6 and 24 h after treatment, compared with DMSO
Description: Mitochondrial membrane potential was measured by using TMRE Assay Kit (ab113852, Abcam), following manufacturer's instructions Briefly, TMRE 200 nM diluted in BSA 0.2%-PBS1× was added for 20′ at 37° C. Cells were analyzed by flow cytometry using FC500.

t(6;11) primary cells = assay: Intracellular Ca2+ measurement (Fluo-4 AM) in t(6;11) primary cells; format: cell-based; details: primary cultures of t(6;11) AML
Description: as §2

## COCCOCCOCCN1CCCCC1CCN1c2ccccc2Sc2ccc(SC)cc21 (stereo not shown) [TDZ2]
[1]
  cytotoxic activity on t(6;11) AML cells (cell death): maintain cytotoxic activity
SHI-1 cells
  mechanism of Ca2+ influx: same mechanism of Ca^2+ influx of TDZ
NSG mice
  neuroleptic effects (akinesia, stepping test): did not induce neuroleptic effects

## CSc1ccc2c(c1)N(CCC1CCCCN1CCOCCOCCN)c1ccccc1S2 (stereo not shown) [TDZ6]
[1]
  cytotoxic activity on t(6;11) AML cells (cell death): maintain cytotoxic activity
SHI-1 cells
  mechanism of Ca2+ influx: same mechanism of Ca^2+ influx of TDZ
NSG mice
  neuroleptic effects (akinesia, stepping test): did not induce neuroleptic effects

## CSc1ccc2c(c1)N(CCC1CCCCN1C)c1ccccc1S2 (racemic) [TDZ, thioridazine]
[1]; SHI-1, 24 h of treatment
  apoptotic and dead cells: 60.8%
[1]; SHI-1, 48 h of treatment
  apoptotic and dead cells: 84.3%
[1]; SHI-1, treatment 16 h after MLL-AF6 silencing, 8, 24 and 30 h after treatment
  apoptosis level after MLL-AF6 silencing: significant rescue of apoptosis level
[2]
  apoptosis and cell death: almost no effects
t(6;11) SHI-1 cells [3]
  colony-forming ability: abrogated colony-forming ability
[4]
  clonogenic potential: did not decrease the clonogenic potential
[5]
  apoptosis: induced apoptosis selectively
[6]
  toxic effects: no toxic effects
[7]
  colony-forming ability: abrogated colony-forming ability
SHI-1 xenografted mice
  progression of tumor growth: significantly reduced the progression of tumor growth
[8]
  tumor growth: not affected
t(6;11) SHI-1 cells [9]
  reactive oxygen species (ROS): highly increased
t(6;11) SHI-1 cells [10]
  mitochondrial depolarization (TMRE): mitochondrial depolarization
SHI-1 cells; 0 minutes post treatment
  intracellular Ca2+, MFI (Fluo-4 AM, flow cytometry): 68.9
SHI-1 cells; 1 minute post treatment
  intracellular Ca2+, MFI (Fluo-4 AM, flow cytometry): 91.8
SHI-1 cells; 3 minutes post treatment
  intracellular Ca2+, MFI (Fluo-4 AM, flow cytometry): 85.8
SHI-1 cells; 5 minutes post treatment
  intracellular Ca2+, MFI (Fluo-4 AM, flow cytometry): 85.4
SHI-1 cells; Ca2+-containing buffer (external Ca2+ present)
  rise in intracellular Ca2+ concentration: triggers a rise in intracellular Ca^2+ concentration in the presence
SHI-1 cells; SHI-1, EGTA pre-treatment 30' before TDZ
  Ca2+ intake after EGTA pre-treatment: Ca^2+ intake was prevented
t(6;11) primary cells
  cytosolic Ca2+ influx: increased cytosolic Ca^2+ influx
NSG mice; 8 mg/kg i.p. starting dose, previously tested
  side effects: free of side effects
NSG mice
  neuroleptic effects (akinesia, stepping test): provokes severe central side effects

— US12319678B2, “Thioridazine derivatives and their use for the treatment of cancer” (UNIVERSITA' DEGLI STUDI DI PADOVA, priority 2019, dated 2025)
